Reference: ChEMBL document CHEMBL1201862, “PubChem BioAssay data set” (2004)
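Growth conditions: 96-well plates. Treatment: test compound, 48 hours, 5 concentrations. Analysis: linear interpolation between bracketing concentrations; unreached endpoints set to highest concentration. GI50 is the concentration that inhibits growth by half.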 The source made the active and inactive calls. Rule as the data show it: active = GI50 up to about 1.1 µM and inactive = higher.

Key:
Experiment in all cases: NCI anticancer screen, dose series, 48 h
IGROV-1 = test system: IGROV-1
SK-MEL-28 = test system: SK-MEL-28
HT-29 = test system: HT-29
COLO 205 = test system: COLO 205
NCI-H226 = test system: NCI-H226
OVCAR-8 = test system: OVCAR-8
786-0 = test system: 786-0
HCT-116 = test system: HCT-116
HOP-92 = test system: HOP-92
RXF 393 = test system: RXF 393
SF-295 = test system: SF-295
UACC-257 = test system: UACC-257
SNB-75 = test system: SNB-75
OVCAR-5 = test system: OVCAR-5
SR = test system: SR
HL-60 = test system: HL-60

Measured: GI50

N#CC1C(=O)NC(=O)C1=O (stereo not drawn)
inactive: IGROV-1 > 100 µM | SK-MEL-28 > 100 µM | HT-29 > 100 µM | COLO 205 > 100 µM | NCI-H226 > 100 µM | OVCAR-8 > 100 µM | 786-0 > 100 µM | HCT-116 > 100 µM | HOP-92 > 100 µM | RXF 393 > 100 µM | SF-295 > 100 µM | UACC-257 > 100 µM | SNB-75 > 100 µM | OVCAR-5 > 100 µM

COc1cc(O)c(C(=O)/C=C/c2ccc(OC)c(OCc3ccccc3)c2)c(OC)c1
inactive: IGROV-1 > 100 µM | SR 4.08 µM | HT-29 > 100 µM | NCI-H226 > 100 µM | OVCAR-8 6.84 µM | 786-0 > 100 µM | HCT-116 4.55 µM | HOP-92 > 100 µM | RXF 393 5.21 µM | UACC-257 > 100 µM | SNB-75 22.1 µM | HL-60 8.67 µM | OVCAR-5 > 100 µM
active: COLO 205 0.0446 µM | SF-295 0.301 µM

COc1cc(-c2cc(-c3cc([N+](=O)[O-])c(/C=N/NC(=O)c4ccncc4)o3)ccc2OC)ccc1C
inactive: IGROV-1 > 100 µM | SK-MEL-28 > 100 µM | HT-29 > 100 µM | COLO 205 > 100 µM | NCI-H226 > 100 µM | 786-0 > 100 µM | HOP-92 > 100 µM | RXF 393 > 100 µM | SF-295 > 100 µM | UACC-257 > 100 µM | SNB-75 > 100 µM | HL-60 > 10 µM | OVCAR-5 > 100 µM

CC12CC(=O)OC(Cc3ccccc31)O2 (stereo not drawn)
inactive: IGROV-1 > 100 µM | SK-MEL-28 > 100 µM | SR > 100 µM | HT-29 > 100 µM | COLO 205 > 100 µM | NCI-H226 > 100 µM | OVCAR-8 > 100 µM | 786-0 > 100 µM | HCT-116 > 100 µM | HOP-92 > 100 µM | RXF 393 > 100 µM | SF-295 > 100 µM | UACC-257 > 100 µM | SNB-75 > 100 µM | HL-60 > 100 µM

C/C(=C\CC[C@]1(C)OC(C)(C)OC1CC/C(C)=C/CO[Si](c1ccccc1)(c1ccccc1)C(C)(C)C)CC/C=C/CO[Si](C)(C)C(C)(C)C (stereo partly drawn)
inactive: IGROV-1 > 100 µM | SK-MEL-28 > 100 µM | HT-29 > 100 µM | NCI-H226 > 100 µM | OVCAR-8 > 100 µM | 786-0 > 100 µM | HCT-116 > 100 µM | HOP-92 > 100 µM | RXF 393 > 100 µM | SF-295 > 100 µM | UACC-257 > 100 µM | SNB-75 > 100 µM | HL-60 > 100 µM | OVCAR-5 > 100 µM

CCc1cc(C)cc2[n+]1CC=C2.[O-][Cl+3]([O-])([O-])[O-]
active: HL-60 0.125 µM
inactive: SK-MEL-28 27.2 µM | HT-29 19.4 µM | COLO 205 21.9 µM | NCI-H226 15.7 µM | OVCAR-8 3.97 µM | 786-0 27.5 µM | HCT-116 18.2 µM | HOP-92 11.6 µM | RXF 393 > 100 µM | SF-295 31.6 µM | UACC-257 3.55 µM | SNB-75 22.9 µM | OVCAR-5 15.5 µM

O=C(O)CC1CC=C[C@H]2c3cc4c(cc3C(=O)NC12)OCO4 (stereo partly drawn)
inactive: IGROV-1 > 75 µM | SK-MEL-28 > 75 µM | SR > 75 µM | COLO 205 > 75 µM | NCI-H226 44.7 µM | OVCAR-8 > 75 µM | 786-0 > 75 µM | HCT-116 > 75 µM | RXF 393 > 75 µM | SF-295 > 75 µM | UACC-257 > 75 µM | SNB-75 > 75 µM | HL-60 > 75 µM

CCCN(CCC)C(=O)c1nc(N)nc(-c2ccc(OC)cc2)c1-c1ccc(OC)cc1
inactive: IGROV-1 > 100 µM | SK-MEL-28 > 100 µM | HT-29 > 100 µM | COLO 205 > 100 µM | NCI-H226 > 100 µM | OVCAR-8 > 100 µM | 786-0 > 100 µM | HCT-116 > 100 µM | HOP-92 82.6 µM | SF-295 > 100 µM | UACC-257 > 100 µM | SNB-75 37.5 µM | HL-60 73.8 µM | OVCAR-5 > 100 µM

O=C1/C(=N\O)C2CCC1C2 (stereo not drawn)
inactive: IGROV-1 > 100 µM | SK-MEL-28 > 100 µM | HT-29 > 100 µM | COLO 205 > 100 µM | NCI-H226 > 100 µM | OVCAR-8 > 100 µM | 786-0 > 100 µM | HCT-116 > 100 µM | HOP-92 > 100 µM | RXF 393 > 100 µM | SF-295 > 100 µM | UACC-257 > 100 µM | SNB-75 > 100 µM | HL-60 > 100 µM | OVCAR-5 > 100 µM

CCOC(=O)C(=O)Nc1nc2c(s1)C(=O)c1ccccc1C2=O
inactive: IGROV-1 19.1 µM | SK-MEL-28 14.3 µM | SR 3.43 µM | HT-29 14.4 µM | COLO 205 22.5 µM | NCI-H226 18.2 µM | OVCAR-8 10.6 µM | 786-0 17.4 µM | HCT-116 13.3 µM | HOP-92 12.2 µM | UACC-257 16.1 µM | SNB-75 16.2 µM | OVCAR-5 27.7 µM

CCOc1ccc(/C=N\N2C(=O)c3ccccc3C2=O)cc1
inactive: IGROV-1 > 100 µM | SK-MEL-28 > 100 µM | SR > 100 µM | HT-29 > 100 µM | NCI-H226 > 100 µM | OVCAR-8 > 100 µM | 786-0 > 100 µM | HCT-116 > 100 µM | HOP-92 > 100 µM | RXF 393 > 100 µM | SF-295 > 100 µM | UACC-257 > 100 µM | SNB-75 > 100 µM | HL-60 > 100 µM | OVCAR-5 > 100 µM

O=C1NN=CN2C(=O)CCC12 (stereo not drawn)
inactive: IGROV-1 > 100 µM | SK-MEL-28 > 100 µM | SR > 100 µM | COLO 205 > 100 µM | OVCAR-8 > 100 µM | 786-0 > 100 µM | HCT-116 > 100 µM | HOP-92 > 100 µM | RXF 393 > 100 µM | SF-295 > 100 µM | UACC-257 > 100 µM | SNB-75 > 100 µM | HL-60 > 100 µM

CCN1/C(=C/C(C)=C/c2sc3ccccc3[n+]2CC)Sc2ccccc21
active: IGROV-1 0.279 µM | SK-MEL-28 0.0285 µM | SR 0.181 µM | HT-29 0.307 µM | COLO 205 0.142 µM | NCI-H226 0.0625 µM | OVCAR-8 0.0948 µM | 786-0 0.418 µM | HCT-116 0.0485 µM | HOP-92 < 0.01 µM | RXF 393 0.273 µM | SF-295 0.112 µM | SNB-75 0.239 µM | HL-60 0.0405 µM | OVCAR-5 0.431 µM

CN(C)CC/C(=N\Nc1c(Cl)cccc1Cl)c1ccccc1
inactive: IGROV-1 26.6 µM | SK-MEL-28 19.2 µM | SR 21.5 µM | HT-29 15.8 µM | COLO 205 15.6 µM | OVCAR-8 16.9 µM | 786-0 15.3 µM | HCT-116 15.3 µM | RXF 393 11.8 µM | SF-295 16 µM | UACC-257 17.7 µM | SNB-75 15.2 µM | HL-60 16.3 µM | OVCAR-5 19.2 µM

O=c1cc(-c2ccc(O)cc2)oc2cc(O)cc(O)c12 [APIGENIN]
inactive: IGROV-1 28.6 µM | SK-MEL-28 20.3 µM | SR 33.6 µM | COLO 205 38.9 µM | NCI-H226 24.7 µM | 786-0 34.3 µM | HCT-116 24.2 µM | HOP-92 20.2 µM | SF-295 27.2 µM | UACC-257 30.8 µM | SNB-75 21.6 µM | HL-60 29.7 µM | OVCAR-5 30.5 µM

Cc1cc(NS(=O)(=O)c2ccc(NC(=O)c3cccc4c(=O)c5ccccc5[nH]c34)cc2)no1
inactive: IGROV-1 40.5 µM | SK-MEL-28 41.2 µM | SR 28.2 µM | HT-29 43.1 µM | COLO 205 50.5 µM | NCI-H226 41.9 µM | OVCAR-8 12.5 µM | 786-0 10.2 µM | HCT-116 36.9 µM | HOP-92 29.5 µM | SF-295 > 10 µM | UACC-257 87.7 µM | SNB-75 23.1 µM | HL-60 30.9 µM | OVCAR-5 94.6 µM

Cc1ccc(/N=C/c2ccc3c(c2)OCO3)cc1C
inactive: IGROV-1 > 100 µM | SK-MEL-28 > 100 µM | SR > 100 µM | HT-29 > 100 µM | COLO 205 > 100 µM | NCI-H226 > 100 µM | OVCAR-8 > 100 µM | 786-0 > 100 µM | HCT-116 > 100 µM | HOP-92 > 100 µM | RXF 393 > 100 µM | SF-295 > 100 µM | SNB-75 > 100 µM | HL-60 > 100 µM | OVCAR-5 > 100 µM

CCOC(=O)c1sc2c(C(=O)OCC)n3ccccc3c2c1N
inactive: IGROV-1 > 100 µM | SK-MEL-28 > 100 µM | HT-29 > 100 µM | COLO 205 > 100 µM | NCI-H226 > 10 µM | OVCAR-8 61.9 µM | 786-0 36.2 µM | HCT-116 81.5 µM | HOP-92 13.4 µM | RXF 393 20.2 µM | SF-295 44.6 µM | UACC-257 > 100 µM | SNB-75 31.7 µM | HL-60 > 100 µM | OVCAR-5 > 100 µM

CC(=O)Nc1ccc(S(=O)(=O)N/N=C/c2cc(I)cc([N+](=O)[O-])c2O)cc1
inactive: IGROV-1 > 100 µM | SK-MEL-28 25.2 µM | HT-29 > 100 µM | COLO 205 > 100 µM | NCI-H226 62.4 µM | OVCAR-8 > 100 µM | 786-0 > 100 µM | RXF 393 21.5 µM | SF-295 > 100 µM | UACC-257 > 100 µM | SNB-75 25.6 µM | HL-60 31.5 µM | OVCAR-5 > 100 µM
